Non-standard residues stand in square brackets, D forms with d. Residues, ends and D or L forms follow the SMILES beside them. ξ: configuration not given here. ξGly(4-Pip(1-amidino)) = N=C(N)N1CCC(C(N)C(=O)O)CC1; ξGly(piperidin-4-yl) = NC(C(=O)O)C1CCNCC1; ξTle = CC(C)(C)C(N)C(=O)O; ξP = O=C(O)C1CCCN1; ξC = NC(CS)C(=O)O
What was measured:
[1] = test system: H1299 cells; assay: Cell cycle arrest, PI staining and flow cytometry; type: cell-based, human; conditions: 20 nM, 24 h; PBS control 17.5%
Procedure: H1299 cells were seeded onto 6-well plates at a density of 2×10^5 cells per well and cultured overnight. The cells were then incubated with 20 nM of free drugs (DM1 and DM1-NO) or drug loaded nanoparticles (DM1-NPs and DM1-NO-NPs) for 24 h, and were then harvested and washed with ice-cold phosphate-buffered saline (PBS) and fixed with cold 70% (vol/vol) ethanol overnight at 4° C. The resulting cells were resuspended in PBS (1×) buffer containing a final concentration of 20 μg/mL RNase A and 20 μg/mL propidium iodide (eBioscience, Invitrogen, USA) for 15 min. The cell cycle profiles were determined using flow cytometry (HyperCyAn, Beckman USA) and analyzed using CellQuest software.

[2] = In vivo toxicity study (hematology, blood biochemistry, liver tissue); set-up: species or system balb/c mice; conditions: 260.8 nmol/kg i.v., Day 10
Procedure: Six-week old female albino BALB/c mice were purchased from Charles River Laboratories, USA. The animals were divided into control and experimental groups (n=3) and marked to permit individual identification. A similar dose (260.8 nmol/kg) of DM1-NO-NPs as used in therapeutic study was administered intravenously and the mice were examined for 10 days to observations for abnormal sign of toxicity such as change in behavioral, dizziness, respiratory distress or mortality were conducted until the end of the study. To further evaluate the hepatic function, alanine aminotransferase (ALT) and aspartate aminotransferase (AST) activities were measured and blood chemistry analysis was performed by using 20 μL blood serum sample form • each treated animal to assess the following: white blood cells (WBC), red blood cells (RBC), and platelets (PLT), plateletcrit, (PCT, mean platelet volume or platelet distribution width) and also corresponding sets of electrolytes (sodium, potassium, chloride, bicarbonate, sugar (glucose) calcium, inorganic phosphate, and magnesium, lipids (cholesterol), albumin, and total protein levels were also analyzed. Histological Analysis: […]

[3] = test system: H1299 cells; assay: MTT cell viability assay, 72 h, without RT; type: cell-based, human
Procedure: The viability of the H1299 cells after different treatments was measured by (4,5-dimethythiazon-2-yl)-2,5-diphenyl tetrazolium bromide (MTT) assay using an Infinite M200 microplate reader (BioTek's Synergy™ Mx, USA). Around 3×10^3 cells per well were seeded into a 96-well plate and cultured overnight until the cells fully adhered to the bottom of the plate. The cells were treated with different treatment groups, including free drugs (DM1 and DM1-NO), and drug loaded nanoparticles (DM1-NPs and DM1-NO-NPs) for 72 h. […] After that MTT reagent (in 20 μL PBS, 5 mg/mL) was added to each well. The cells were further incubated for 4 h at 37° C. The medium in each well was then removed and replaced by 100 μL DMSO. The plate was gently shake for 5 min (instrument setup) to dissolve the formazan crystals, and the absorbance at 570 nm was recorded by a microplate reader. Each experiment condition was run three times and the data were shown as the mean value plus a standard deviation (±SD).

[4] = test system: H1299 cells; assay: MTT cell viability assay, 72 h, in the presence of RT; type: cell-based, human; conditions: with RT
Procedure: FIGS. 7A-7E are plots showing the results of a cell cycle analysis, based on PI staining and assessed by flow cytometry. H1299 cells were incubated with PBS (7A), DM1 (7B), DM1-NO (7C), DM1-NPs (7D), or DM1-NO-NPs (20 nM, DM1 concentration) (7E) before analysis. […] FIG. 7G is a bar graphs showing Percentage of tubulin inhibition. Tubulin polymer was collected by centrifugation (35000×g for 1 h at 30° C.) and the amount of tubulin protein sediment was quantified by measuring protein concentration. ***, P<0.001. FIG. 7H is a line graph showing cell viability, tested with H1299 cells using 72-h MTT in the presence of RT. DM1, DM1-NO, and DM1-NO-NPs were studied.
The viability of the H1299 cells after different treatments was measured by (4,5-dimethythiazon-2-yl)-2,5-diphenyl tetrazolium bromide (MTT) assay using an Infinite M200 microplate reader (BioTek's Synergy™ Mx, USA). Around 3×10^3 cells per well were seeded into a 96-well plate and cultured overnight until the cells fully adhered to the bottom of the plate. The cells were treated with different treatment groups, including free drugs (DM1 and DM1-NO), and drug loaded nanoparticles (DM1-NPs and DM1-NO-NPs) for 72 h. […] The plate was gently shake for 5 min (instrument setup) to dissolve the formazan crystals, and the absorbance at 570 nm was recorded by a microplate reader. […]

[5] = test system: H1299 cells; assay: Clonogenic assay with X-ray irradiation, linear-quadratic model; type: cell-based, human; conditions: 20 nM, 12 h, X-rays 0-10 Gy
Procedure: Around 3×10^5 of H1299 cells were plated in a series of 25 mm petri dishes in 5 mL of complete RMPI-1640 medium, and the cells were incubated for 24 h at 37° C. Once the cells were completely adhered to the bottom of the plate, the media was replaced with fresh RPMI-1640 containing DM1 or DM1-NO with a final concentration of 20 nM. After another 12 h of incubation, the cell cultures were irradiated by X-rays (320 kV) of different doses Immediately following the X-ray irradiation, the cell monolayers were trypsinized using 0.05% Trypsin/EDTA (Gibco, Life Technologies, USA). Single cells were collected and plated onto a 25 mm petri dish in 5 mL complete media (FIG. 1K). Each dish was then incubated for 21 days to allow colonies to form. After that, the media was removed and 0.5% crystal violet in 70% methanol was used to fixed and stain the existing colonies. The plates were sufficiently and carefully rinsed, and were dried at room temperature. Once dried, the colonies were counted manually under a microscope. When observed under the microscope, colonies of […] were said to be surviving colonies. The survival rate of these colonies was normalized to the plating efficiency of the untreated control cells. The mean and standard deviation of surviving colonies in each treatment group was calculated.
The potential of DM1-NO as a radiosensitizer was assessed by clonogenic assays. Briefly, DM1 or DM1-NO was incubated with H1299 cells, the cells were irradiated with X-rays (0-10 Gy), and the resulting cells were seeded onto a petri dish (FIG. 1K). Colonies consisting more than 50 cells after 3 weeks were counted, and the data fit to a linear-quadratic model (Table 3).

[6] = compared to wildtype NTS; cited from earlier work
[7] = target: NTSR1 (Homo sapiens, UniProt P30989); conditions: compared to wildtype NTS; cited from earlier work
Sequence of NTSR1 (P30989 whole entry): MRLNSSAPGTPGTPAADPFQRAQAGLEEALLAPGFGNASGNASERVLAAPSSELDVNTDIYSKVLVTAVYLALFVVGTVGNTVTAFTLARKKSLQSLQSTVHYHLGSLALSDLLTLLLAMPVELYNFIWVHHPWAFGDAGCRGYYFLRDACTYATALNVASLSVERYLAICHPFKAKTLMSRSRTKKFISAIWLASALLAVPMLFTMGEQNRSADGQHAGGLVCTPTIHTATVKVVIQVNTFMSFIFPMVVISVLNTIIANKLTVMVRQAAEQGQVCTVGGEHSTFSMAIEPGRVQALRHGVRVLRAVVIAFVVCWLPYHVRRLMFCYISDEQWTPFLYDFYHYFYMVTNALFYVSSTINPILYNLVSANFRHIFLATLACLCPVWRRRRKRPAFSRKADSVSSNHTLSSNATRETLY

SMILES	portion of cells in the G2/M phase [1]	complete blood count: WBC, RBC, PLT, PCT levels [2]	IC50 [3]	IC50 [4]	D10 (radiation dose at 10% fractional survival) [5]	α (linear quadratic model best fit value) [5]	β (linear quadratic model best fit value) [5]	biological stability [6]	avidity to NTSR1 [7]
COc1cc2cc(c1Cl)N(C)C(=O)C[C@H](OC(=O)[C@H](C)N(C)C(=O)CCS)[C@]1(C)O[C@H]1[C@H](C)[C@@H]1C[C@@](O)(NC(=O)O1)[C@H](OC)/C=C/C=C(\C)C2 [DM1, Mertansine, reference compound]	85.3%	in the normal range	0.0198 µM	0.0174 µM	4.89 Gy	0.0729	0.0033		
CC(C)C[C@H](NC(=O)C(NC(=O)[C@H](Cc1ccc(O)cc1)NC(=O)C1CCCN1C(=O)[C@H](CCCNC(=N)N)NC(=O)C(NC(=O)C1CCCN1C(=O)C(NC(=O)C(N)CS)C1CCNCC1)C1CCN(C(=N)N)CC1)C(C)(C)C)C(=O)O (stereo partly drawn) [NTSmut] (H-[ξC][ξGly(piperidin-4-yl)][ξP][ξGly(4-Pip(1-amidino))]R[ξP]Y[ξTle]L-OH)								much greater biological stability	comparable, nanomolar avidity
